Assays:
HSC-3 = assay: trypan blue exclusion assay, HSC-3 cells; assay type: cell-based, human; conditions: HSC-3 human squamous carcinoma; trypan blue exclusion assay
Method: The HSC-3 (human oral squamous cell carcinoma) were cultured in 1:1 Dulbecco's Modified Eagle's Medium (DMEM) and Ham's Nutrient Mixture F-12, containing 10% FBS (HyClone, Logan, Utah, USA), 100 U/ml penicillin, 100 μg/ml streptomycin (Gibco BRL, Rockville, Md., USA) and 2 mM glutamine (Merck, Darmstadt, Germany).
Cell viability was also determined by trypan-blue exclusion assay. Cells were seeded in 6-well plates (2×10^4/well) for trypan blue exclusion assay, and incubated for 24 hours at 37° C. Culture medium containing test compound or DMSO (0.006%) was added to each well, and cells were incubated at 37° C. At indicated time points (0, 24, 48, 72 and 96 hr), cells were suspended with 0.05% trypsin-EDTA, and stained with trypan-blue dye (0.4%) (Sigma). The cell viability was evaluated by the percentage of death relative to the total cell, and cell growth curve was determined by number of live cells relative to the total number of cells.
The anti-proliferation effects of Compounds 17-31 on M21, CH27, H460, Hep3B and HSC-3 cells were evaluated by the trypan blue exclusion assay.

U87 glioma cells = assay: immunofluorescent staining, confocal microscopy; assay type: cell-based, human; conditions: 60 nM, 24 hours
Method: 2×10^4 cells were seeded on the PDL-coating 12 mm-glass coverslips in 24-well plate and allowed to attach for 24 hours at 37° C. Culture medium containing MJ-66 (IC50) or DMSO (0.006%) was added, and cells were incubated at 37° C. At indicated time points (0, 12 and 24 hr), cells were fixed in 4% paraformaldehyde (PFA) in PBS for 30 minutes. After permeabilized by 0.2% Triton X-100 in 0.1 M PBS for 10 minutes and 10% methanol containing 0.2% Triton X-100 in 0.1 M PBS for 5 minutes, cells were blocked in 3% bovine serum albumin (BSA, Sigma) for 1 hour. The cells were immunostained for mitotic spindle with mouse monoclonal alpha-tubulin (Sigma-Aldrich), and mitotic center with rabbit polyclonal gamma-tubulin (Genetex), and then stained with appropriated secondary antibodies conjugated with Texas Red or FITC for 1 hr. […] Fluorescence images were detected by confocal laser scanning microscope (FV1000, Olympus).
To observe the morphology of MJ-66-treated glioma cells, C6 or U87 glioma cells were treated with medium or 60 nM MJ-66 for 24 hours and stained with Hoechst 33342 and antibodies against alpha-tubulin conjugated with FITC or antibodies against gamma-tubulin conjugated with FITC in combination with antibodies against alpha-tubulin conjugated with Texas Red were detected by confocal laser scanning microscope. […]

[1] = tested on: U87 human glioma cell lines; assay: MTS cell viability assay, U87 glioma cells; assay type: cell-based; conditions: 48 hours, mean±SEM, n=3
Method: The human glioma cell lines U87, U251, T98G, U373, and rat glioma cell line RT2 provided by Dr. Michael Hsiao (Genomics Research Center, Academia Sinica, Taiwan) were cultured in Dulbecco's Modified Eagle medium (DMEM) (Caisson) supplemented with 10% fetal bovine serum (FBS) (Sigma-Aldrich), 2 mM L-glutamine (Caisson), 100 U/ml penicillin, and 100 μg/ml streptomycin (Caisson). The rat glioma C6 cell line provided by Dr. Shun-Fen Tzeng (National Cheng Kung University, Taiwan) was cultured in DMEM/F12 (Caisson) supplemented with 10% fetal bovine serum, 2 mM L-glutamine, 100 U/ml penicillin, and 100 μg/ml streptomycin. The human normal glia cell line SVGP12, kindly provided by Dr. Michael Hsiao, was cultured in Minimum Essential Medium (MEM) (Invitrogen) supplemented with 10% fetal bovine serum, 2 mM L-glutamine, 100 U/ml penicillin, and […]. Primary glia cells were prepared by surgery. Cerebral cortices without meninges were dissected from postnatal (P0-P2) Sprague-Dawley (SD, NCKU Laboratory Animal Center) rats and dissociated in 0.05% trypsin-EDTA (Biowest) at 37° C. for 10 min. Culture medium was added and pipetted for several times, and supernatant was removed after a centrifugation at 1,000 rpm for 5 minutes. […]
Cell proliferation was determined by MTS (tetrazolium compound, 3-(4,5-dimethylthiazol-2-yl)-5-(3-carboxymethoxyphenyl)-2-(4-sulfophenyl)-2H-tetrazolium) assay (Promega). […] The absorbance of soluble formazan was measured at 490 nm with microplate reader (Molecular device). The cell viability was determined by the percentage of the absorption relative to untreated control. […]
To investigate the effect of 2-aryl-4-quinazolinone in accordance with the present invention on cell proliferation, glioma cell lines were treated with MJ-66, MJ-68, or MJ-78. […] The cell viability of each group was analyzed by MTS assay (mean±SEM, n=3).

SMILES: O=c1[nH]c(-c2cccc3ccccc23)nc2ccc(N3CCCC3)cc12 [Compound 23, 6-(Pyrrolidin-1-yl)-2-(naphthalen-1-yl)quinazolin-4-one]
- IC50 (HSC-3): 41 nM
- nuclear morphology of U87 glioma cells (U87 glioma cells): abnormal nuclear phenotype
- IC50 [1]: 54 ± 10 nM

Source: US8710064B2, “2-aryl-4-quinazolinones and their pharmaceutical compositions” (China Medical University, priority 2011, dated 2014)
